Experimental data published in ChEMBL document CHEMBL4152351, “Isoxazolo[3,4-d]pyridazinones positively modulate the metabotropic glutamate subtypes 2 and 4” (Bioorg Med Chem, 2018).

Assays:
[1] = molecular target: Metabotropic glutamate receptor 5 (Homo sapiens, UniProt P41594); test: Displacement of MPEP from mGluR5 (unknown origin) after 3 hrs by liquid scintillation counting method
[2] = molecular target: Glutamate [NMDA] receptor; test: Displacement of [3H]MK-801 from NMDA receptor (unknown origin) after 3 hrs by liquid scintillation counting method; type: protein-complex assay, Homo sapiens
[3] = molecular target: Metabotropic glutamate receptor 4 (Homo sapiens) (UniProt Q14833); test: Antagonist activity at Gi-coupled mGluR4 (unknown origin) expressed in CHO cells assessed as decrease in glutamate-induced inhibition of forskolin-stimulated cAMP accumulation after 1 hr by glosensor based luciferase reporter gene assay relative to control; type: functional, cell-based; design: concentration or dose not given beside the values; conditions: concentration not given here
Metabotropic glutamate receptor 4 (Homo sapiens), sequence (Q14833 whole entry): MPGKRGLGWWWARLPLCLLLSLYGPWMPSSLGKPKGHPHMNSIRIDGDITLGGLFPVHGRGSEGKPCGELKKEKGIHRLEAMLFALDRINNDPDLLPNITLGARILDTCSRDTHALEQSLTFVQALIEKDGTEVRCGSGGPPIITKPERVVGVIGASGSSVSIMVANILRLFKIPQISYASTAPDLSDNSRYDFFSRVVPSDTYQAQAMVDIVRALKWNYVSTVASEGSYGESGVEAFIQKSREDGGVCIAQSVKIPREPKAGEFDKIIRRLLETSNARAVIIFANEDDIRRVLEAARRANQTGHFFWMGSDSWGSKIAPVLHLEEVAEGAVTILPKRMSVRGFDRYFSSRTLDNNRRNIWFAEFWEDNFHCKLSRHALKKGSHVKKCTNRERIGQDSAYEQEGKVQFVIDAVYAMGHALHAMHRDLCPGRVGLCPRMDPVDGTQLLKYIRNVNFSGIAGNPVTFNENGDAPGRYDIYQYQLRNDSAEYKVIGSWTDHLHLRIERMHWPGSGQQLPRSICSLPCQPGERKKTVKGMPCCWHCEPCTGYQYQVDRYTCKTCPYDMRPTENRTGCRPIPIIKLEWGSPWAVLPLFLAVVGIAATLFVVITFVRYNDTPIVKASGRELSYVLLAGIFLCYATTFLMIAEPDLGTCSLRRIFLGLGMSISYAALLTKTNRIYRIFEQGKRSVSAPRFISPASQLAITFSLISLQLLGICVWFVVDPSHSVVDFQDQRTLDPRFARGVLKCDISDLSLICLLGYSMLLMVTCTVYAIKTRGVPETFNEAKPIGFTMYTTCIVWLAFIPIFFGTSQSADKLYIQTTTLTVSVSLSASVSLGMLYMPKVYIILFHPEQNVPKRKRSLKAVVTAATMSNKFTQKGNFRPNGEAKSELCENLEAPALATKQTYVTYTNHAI

[4] = species: Homo sapiens; test: Displacement of muscimol from GABA-A receptor (unknown origin) after 90 mins by liquid scintillation counting method; design: concentration or dose not given beside the values
[5] = molecular target: Metabotropic glutamate receptor 2 (Homo sapiens) (UniProt Q14416); test: Antagonist activity at Gi-coupled mGluR2 (unknown origin) expressed in CHO cells assessed as decrease in glutamate-induced inhibition of forskolin-stimulated cAMP accumulation after 1 hr by glosensor based luciferase reporter gene assay relative to control; type: functional, cell-based; design: concentration or dose not given beside the values; conditions: concentration not given here
Metabotropic glutamate receptor 2 (Homo sapiens), sequence (Q14416 19-872 limits assumed): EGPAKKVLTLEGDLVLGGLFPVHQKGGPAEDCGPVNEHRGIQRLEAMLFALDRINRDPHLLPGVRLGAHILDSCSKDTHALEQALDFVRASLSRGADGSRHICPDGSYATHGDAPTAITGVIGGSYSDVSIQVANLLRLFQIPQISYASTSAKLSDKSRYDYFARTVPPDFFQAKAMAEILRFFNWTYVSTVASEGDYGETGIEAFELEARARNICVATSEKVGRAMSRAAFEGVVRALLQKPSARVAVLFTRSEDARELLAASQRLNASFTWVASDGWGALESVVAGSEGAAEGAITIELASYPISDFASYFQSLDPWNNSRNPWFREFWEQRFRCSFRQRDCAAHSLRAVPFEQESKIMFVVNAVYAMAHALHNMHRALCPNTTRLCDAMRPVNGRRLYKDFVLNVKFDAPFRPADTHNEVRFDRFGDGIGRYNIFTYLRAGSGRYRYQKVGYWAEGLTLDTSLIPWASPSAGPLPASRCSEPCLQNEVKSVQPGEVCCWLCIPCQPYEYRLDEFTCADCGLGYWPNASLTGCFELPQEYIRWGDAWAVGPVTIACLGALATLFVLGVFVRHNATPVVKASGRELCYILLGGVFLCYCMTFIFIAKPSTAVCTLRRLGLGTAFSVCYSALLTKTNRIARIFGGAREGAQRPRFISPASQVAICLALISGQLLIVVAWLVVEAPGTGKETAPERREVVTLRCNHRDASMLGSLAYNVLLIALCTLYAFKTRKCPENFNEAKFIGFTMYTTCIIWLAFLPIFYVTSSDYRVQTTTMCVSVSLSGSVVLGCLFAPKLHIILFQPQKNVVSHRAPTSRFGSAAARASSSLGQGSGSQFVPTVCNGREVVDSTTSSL

Metabotropic glutamate receptor 5, sequence (P41594 whole entry): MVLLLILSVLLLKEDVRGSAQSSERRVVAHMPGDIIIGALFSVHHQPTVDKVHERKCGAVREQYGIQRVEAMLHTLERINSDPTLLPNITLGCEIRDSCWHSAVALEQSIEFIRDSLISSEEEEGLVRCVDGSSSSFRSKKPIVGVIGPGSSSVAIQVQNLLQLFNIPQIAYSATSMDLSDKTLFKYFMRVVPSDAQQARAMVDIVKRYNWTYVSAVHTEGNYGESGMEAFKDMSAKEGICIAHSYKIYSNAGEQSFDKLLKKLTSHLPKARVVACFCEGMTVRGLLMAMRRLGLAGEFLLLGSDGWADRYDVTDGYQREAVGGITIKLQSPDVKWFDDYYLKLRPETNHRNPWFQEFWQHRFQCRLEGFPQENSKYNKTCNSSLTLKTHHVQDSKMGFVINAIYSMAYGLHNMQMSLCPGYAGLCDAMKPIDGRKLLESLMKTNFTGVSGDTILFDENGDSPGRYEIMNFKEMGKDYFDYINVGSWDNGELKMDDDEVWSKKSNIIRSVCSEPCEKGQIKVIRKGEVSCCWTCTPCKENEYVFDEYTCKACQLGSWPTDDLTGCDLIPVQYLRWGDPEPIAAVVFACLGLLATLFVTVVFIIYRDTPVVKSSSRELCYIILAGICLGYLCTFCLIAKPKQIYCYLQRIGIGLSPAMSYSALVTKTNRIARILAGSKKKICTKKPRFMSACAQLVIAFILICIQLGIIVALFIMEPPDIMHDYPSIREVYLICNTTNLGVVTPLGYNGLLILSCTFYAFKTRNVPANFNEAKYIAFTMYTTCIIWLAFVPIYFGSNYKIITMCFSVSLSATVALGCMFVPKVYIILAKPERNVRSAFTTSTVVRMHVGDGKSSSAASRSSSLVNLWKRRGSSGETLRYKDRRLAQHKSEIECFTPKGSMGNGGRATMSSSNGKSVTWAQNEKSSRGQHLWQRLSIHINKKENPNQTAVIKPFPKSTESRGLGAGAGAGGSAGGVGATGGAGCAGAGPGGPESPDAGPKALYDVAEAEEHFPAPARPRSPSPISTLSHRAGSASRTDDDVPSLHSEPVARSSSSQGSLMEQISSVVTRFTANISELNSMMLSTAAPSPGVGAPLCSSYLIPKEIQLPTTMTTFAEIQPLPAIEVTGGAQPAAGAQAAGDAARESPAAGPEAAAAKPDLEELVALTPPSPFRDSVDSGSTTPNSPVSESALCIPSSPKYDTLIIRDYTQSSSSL

Compound	Ki [1] [µM]	Ki [2] [µM]	inhibition [3] [%]	inhibition [4] [%]	inhibition [5] [%]
COc1ccc(-n2nc(C)c3conc3c2=O)cc1	> 10	> 10	9	–	–
Cc1ccc(-n2nc(C)c3conc3c2=O)cc1	1.88	> 10	-9	–	–
Cc1nn(-c2ccccc2)c(=O)c2nocc12	> 10	> 10	-5	-6	–
Cc1nn(-c2cc(C(F)(F)F)cc(C(F)(F)F)c2)c(=O)c2nocc12	–	> 10	11	-7.2	0

Other lines, results leading:

Ki [1] [µM]	Ki [2] [µM]	inhibition [3] [%]	inhibition [4] [%]	inhibition [5] [%]	Compound
> 10	> 10	-3	-4.7	5	Cc1nn(-c2ccc([N+](=O)[O-])cc2)c(=O)c2nocc12
> 10	> 10	3	-6	23	Cc1nn(-c2ccc(F)cc2)c(=O)c2nocc12
0.033	–	–	–	–	CN1CC(=O)N=C1NC(=O)Nc1cccc(Cl)c1 [FENOBAM ANHYDROUS]
> 10	> 10	-7	-10	–	Cc1nn(-c2ccc(F)cc2F)c(=O)c2nocc12
> 10	> 10	-10	–	48	Cc1nn(-c2cccc([N+](=O)[O-])c2)c(=O)c2nocc12
3.08	> 10	-6	-7.8	11	Cc1nn(-c2cc(Cl)cc(Cl)c2)c(=O)c2nocc12
